Measurements reported in paper PMC4770234, “The conserved GTPase HflX is a ribosome splitting factor that binds to the E-site of the bacterial ribosome” (Nucleic Acids Research, 2016).

How the values were obtained:
[1] = molecular target: T1, HflX (wild-type) (Escherichia coli, UniProt P25519); test: stopped-flow light scattering of […] ribosome splitting; format: biochemical; conditions: 1 uM HflX, 125 uM nucleotide, 0.15 uM 70S ribosomes, 5 mM Mg2+, 20 °C; compared with apo HflX; indirect functional read-out
T1 construct: full length, N-terminal His6-tag, pET28a
T1 sequence (P25519 whole entry): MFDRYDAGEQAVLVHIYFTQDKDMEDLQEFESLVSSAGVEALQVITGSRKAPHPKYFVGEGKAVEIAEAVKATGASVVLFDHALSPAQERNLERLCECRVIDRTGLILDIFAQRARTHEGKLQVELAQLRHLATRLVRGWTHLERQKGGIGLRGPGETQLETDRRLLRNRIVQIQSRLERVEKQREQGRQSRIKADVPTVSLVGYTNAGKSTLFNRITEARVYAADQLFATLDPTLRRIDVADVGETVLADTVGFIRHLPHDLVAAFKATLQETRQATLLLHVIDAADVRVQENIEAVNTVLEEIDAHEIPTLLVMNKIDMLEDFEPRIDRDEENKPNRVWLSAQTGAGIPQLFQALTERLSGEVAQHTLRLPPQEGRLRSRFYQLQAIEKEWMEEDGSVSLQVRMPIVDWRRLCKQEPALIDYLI

[2] = molecular target: T2, HflX ΔL372 (Escherichia coli, UniProt P25519); test: [γ-32P]GTP hydrolysis, phosphate release, multiple turnover; format: biochemical; conditions: ribosome-stimulated GTPase; 1 uM HflX, 125 uM GTP, 1 uM ribosomes per methods; labelled compound
T2 construct: C-terminal truncation: codon Leu372 (elsewhere printed Lys372) replaced by amber stop; N-terminal His6-tag, pET28a
T2 sequence (P25519 1-371): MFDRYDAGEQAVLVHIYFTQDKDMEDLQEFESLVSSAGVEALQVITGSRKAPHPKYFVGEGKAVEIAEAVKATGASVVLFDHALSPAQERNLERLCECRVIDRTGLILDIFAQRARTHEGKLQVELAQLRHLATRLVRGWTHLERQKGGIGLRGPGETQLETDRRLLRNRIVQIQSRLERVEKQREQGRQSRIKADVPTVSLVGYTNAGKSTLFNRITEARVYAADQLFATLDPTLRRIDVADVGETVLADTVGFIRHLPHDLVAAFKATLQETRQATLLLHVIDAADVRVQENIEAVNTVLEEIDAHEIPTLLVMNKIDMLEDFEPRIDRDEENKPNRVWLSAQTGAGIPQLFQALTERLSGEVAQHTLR

SMILES	stopped-flow light scattering of 70S ribosome splitting [1]	[γ-32P]GTP hydrolysis, phosphate release, multiple turnover [2]
Nc1nc2c(ncn2[C@@H]2O[C@H](COP(=O)(O)OP(=O)(O)NP(=O)(O)O)[C@@H](O)[C@H]2O)c(=O)[nH]1 [GDPNP]	HflX•GDPNP dissociated ribosomes to a greater extent than HflX•GDP	
Nc1nc2c(ncn2[C@@H]2O[C@H](COP(=O)(O)OP(=O)(O)OP(=O)(O)O)[C@@H](O)[C@H]2O)c(=O)[nH]1 [GTP]		we tested the ΔL372 truncation variant for GTP hydrolysis finding that it is still active
